Reference: article PMC8230474, “Synthesis of Novel Acyl Derivatives of 3-(4,5,6,7-Tetrabromo-1H-benzimidazol-1-yl)propan-1-ols—Intracellular TBBi-Based CK2 Inhibitors with Proapoptotic Properties” (International Journal of Molecular Sciences, 2021)
Like-named read-outs stand apart in the source and are kept apart here.

What was measured:
MCF-7 cells [1] = assay: Cell cycle progression by flow cytometry, MCF-7; type: cell-based, human; details: MCF-7, 72 h, compound at its EC50
MDA-MB-231 cells [2] = assay: Annexin V-FITC/PI flow cytometry, MDA-MB-231; type: cell-based, human; details: compound at its EC50
Protocol: Similar to the results obtained for MCF-7 cells, compound 6b acted in MDA-MB-231 cells as an effective inducer of apoptosis with the amount of apoptotic cells equal to 31.5% and 49% after 24 h and 72 h of treatment, respectively.
MCF-7 cells were seeded in six-well plates at 1.5 × 10^5 cells/well. […] Then, the plates were incubated for 24 h or 72 h. After exposure to the examined compounds, the floating cells were collected, and monolayer cell culture was trypsinized. The cells were centrifugated at 200× g at 4 °C for 5 min, washed twice in cold phosphate-buffered saline (PBS), and subsequently suspended in binding buffer at 1 × 10^6 cells/mL. Subsequently, 100-μL aliquots of the cell suspension were labeled according to the kit manufacturer’s instructions. Briefly, annexin V-fluorescein isothiocyanate and propidium iodide (BD Biosciences, Pharmingen, San Diego, CA, USA) were added to the cell suspension, and the mixture was vortexed and then incubated for 15 min at RT in the dark. A cold binding buffer (900 μL) was then added and the cells were vortexed again and kept on ice. Flow cytometric measurements were performed within 1 h after labeling. Viable, necrotic, early, and late apoptotic cells were detected by flow cytometry using CyFlow Cube 8 (Sysmex, Norderstedt, Germany) flow cytometer.

MCF-7 cells [3] = assay: MTT viability assay, MCF-7; type: cell-based; details: Homo sapiens, read-out: EC50 ± SD MCF-7
Protocol: (§1) To test the anti-cancer effect of the TBBi derivatives, we treated the MCF-7 and MDA-MB-231 cells with the newly synthesized esters and previously reported compounds [34, 57] at the concentration range of 3.125 to 200 µM for 24 h, 48 h and 72 h. Additionally, the range of concentrations was extended by additional lower concentrations in MCF-7 for compound 4 with the minimum concentration of 0.195 µM. […] The EC50 values, describing the half maximal effective concentration of each tested compound, were calculated and are summarized in Table 2. […] We observed that the EC50 values increase in both cell lines with the elongation of fatty acids chain length in the tested compounds, thus strongly correlating with the decrease of their solubility in biological media as characterized by logS parameter (Table 2). The second reason for the decreased biological activity of the longer-chain aliphatic esters might be attributed to their greater resistance toward intracellular hydrolysis, which directly influences the slower release of the active form of the corresponding CK2 inhibitors. […] However, none of the tested compounds, except for compound 5, decreased the viability of both cell lines in a time-dependent manner (Figure 4).
(§2) MCF-7 and MDA-MB-231 were cultured in high-glucose Dulbecco’s modified Eagle medium (DMEM, Lonza, Basel, Switzerland) supplemented with 10% fetal bovine serum (FBS, EuroClone, Siziano, Italy)), 2 mM L-glutamine, and antibiotics (100 U/mL penicillin, 100 µg/mL streptomycin) (Sigma-Aldrich Chemical Company (St. Louis, MO, USA). Cells were grown in 75-cm^2 cell culture flasks (Sarstedt, Nümbrecht, Germany) in a humidified atmosphere of CO2/air (5%/95%) at 37 °C. All the experiments were performed in exponentially growing cultures. Stock solutions of the test compounds were prepared in DMSO and stored in −80 °C for a maximum of one month. For the cytotoxicity studies, stock solutions of the tested compounds were diluted 200-fold with the proper culture medium to obtain the final concentrations.
(§3) After incubation with the tested compounds, an MTT test was performed as described previously. Optical densities were measured at 570 nm using BioTek microplate reader (Winooski, VT, USA). All measurements were carried out in a minimum of three biological replicates.

MDA-MB-231 cells [4] = assay: MTT viability assay, MDA-MB-231; type: cell-based; details: Homo sapiens, read-out: EC50 ± SD MDA-MB-231
Protocol: as §1, §2, §3

PIM1 = PIM1 (Homo sapiens, UniProt P11309); assay: Radiometric (P81 filter isotopic) kinase assay, PIM1; type: biochemical; details: read-out: Residual Activity of the Enzyme PIM1; for remaining activity at 5 µM: 5 µM compound; for remaining activity at 10 µM: 10 µM compound
Chain of PIM1 (P11309 whole entry, species assumed): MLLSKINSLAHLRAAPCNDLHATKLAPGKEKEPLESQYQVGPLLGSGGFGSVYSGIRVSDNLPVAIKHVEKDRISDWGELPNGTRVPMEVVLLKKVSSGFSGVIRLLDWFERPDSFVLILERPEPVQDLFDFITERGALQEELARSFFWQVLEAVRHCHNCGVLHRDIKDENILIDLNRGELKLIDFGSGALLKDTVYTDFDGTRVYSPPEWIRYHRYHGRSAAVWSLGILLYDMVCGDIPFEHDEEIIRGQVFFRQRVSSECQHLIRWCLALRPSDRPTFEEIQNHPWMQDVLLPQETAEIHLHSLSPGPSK

[5] = biological target: human CK2 catalytic subunit (CK2α) (Homo sapiens, UniProt P68400); assay: Radiometric (P81 filter isotopic) kinase assay, CK2 catalytic subunit; type: biochemical; details: read-out: Residual Activity of the Enzyme CK2α; for remaining activity at 5 µM: 5 µM compound; for remaining activity at 10 µM: 10 µM compound
Chain of human CK2 catalytic subunit (CK2α) (P68400 whole entry): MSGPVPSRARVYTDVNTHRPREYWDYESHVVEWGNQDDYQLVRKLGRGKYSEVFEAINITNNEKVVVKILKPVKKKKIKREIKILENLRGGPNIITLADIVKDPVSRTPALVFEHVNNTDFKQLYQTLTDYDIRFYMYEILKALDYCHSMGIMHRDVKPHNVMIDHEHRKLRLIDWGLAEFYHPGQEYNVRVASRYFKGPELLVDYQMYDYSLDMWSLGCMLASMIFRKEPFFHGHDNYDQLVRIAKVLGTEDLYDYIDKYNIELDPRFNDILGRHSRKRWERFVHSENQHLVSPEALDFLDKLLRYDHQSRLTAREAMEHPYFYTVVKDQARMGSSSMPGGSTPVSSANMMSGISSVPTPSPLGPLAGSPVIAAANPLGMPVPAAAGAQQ

[6] = biological target: CK2 holoenzyme (CK2 α2β2) (Homo sapiens, UniProt P68400); assay: Radiometric (P81 filter isotopic) kinase assay, CK2 holoenzyme; type: biochemical; details: read-out: Residual Activity of the Enzyme CK2 α2β2; for remaining activity at 5 µM: 5 µM compound; for remaining activity at 10 µM: 10 µM compound
Chain of CK2 holoenzyme (CK2 α2β2) (P68400 whole entry): as above
Chain of CK2 holoenzyme (CK2 α2β2) (P67870 whole entry partner): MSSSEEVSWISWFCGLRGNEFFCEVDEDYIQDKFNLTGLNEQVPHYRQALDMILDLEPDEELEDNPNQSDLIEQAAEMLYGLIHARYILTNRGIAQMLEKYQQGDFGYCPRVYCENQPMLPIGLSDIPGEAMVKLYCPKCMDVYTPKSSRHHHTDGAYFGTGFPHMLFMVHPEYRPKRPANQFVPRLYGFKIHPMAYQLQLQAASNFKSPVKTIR

EC50 (MCF-7 cells [3]; MCF7, 24 h)	EC50 (MCF-7 cells [3]; MCF7, 48 h)	EC50 (MCF-7 cells [3]; MCF7, 72 h)	EC50 (MDA-MB-231 cells [4]; 24 h)	EC50 (MDA-MB-231 cells [4]; 48 h)	EC50 (MDA-MB-231 cells [4]; 72 h)	remaining activity at 5 µM (PIM1)	remaining activity at 10 µM (PIM1)	remaining activity at 5 µM [5]	remaining activity at 10 µM [5]	remaining activity at 5 µM [6]	remaining activity at 10 µM [6]	Structure (SMILES)	cells in G1 (MCF-7 cells [1])	cells in G2M (MCF-7 cells [1])	cells in S (MCF-7 cells [1])	apoptotic cells (MDA-MB-231 cells [2]; MDA-MB-231, 24 h treatment)	apoptotic cells (MDA-MB-231 cells [2]; MDA-MB-231, 72 h treatment)
24.3 ± 0.25 µM	21.1 ± 1.23 µM	29.9 ± 1.45 µM	45.1 ± 5.43 µM	23.7 ± 3.97 µM	32.8 ± 3.25 µM	99.1 ± 15.7%	95.4 ± 4%	86.1 ± 4.2%	79.2 ± 7.6%	95.3 ± 2.9%	92.7 ± 3.5%	CCCCCCCC(=O)OCCCn1cnc2c(Br)c(Br)c(Br)c(Br)c21 [Compound 3c, 3-(4,5,6,7-Tetrabromo-1H-benzimidazol-1-yl)propyl octanoate]	59.4%	11.0%	29.6%	32.5%	50.5%
22.4 ± 1.12 µM	18.59 ± 0.18 µM	18.3 ± 2.86 µM	51.4 ± 8.22 µM	21.2 ± 2.4 µM	22.1 ± 3.18 µM	62.4 ± 8.3%	46.4 ± 2.7%	76.8 ± 1.9%	74.3 ± 0.1%	85.4 ± 0.6%	71.4 ± 0.2%	CCCCCC(=O)OCCCn1c(C)nc2c(Br)c(Br)c(Br)c(Br)c21 [Compound 6b, (4,5,6,7-Tetrabromo-2-methyl-1H-benzimidazol-1-yl)propyl hexanoate]	50.1%	19.9%	30.0%	31.5%	49%
